The source of these data is US10544131B2, “MCL-1 antagonists” (The Regents of the University of California, priority 2014, dated 2020).

Entries after “also recorded” stand apart in the source; their conditions may differ.

For data set [1], the target named is T1, recombinant Mcl-1 (Homo sapiens, UniProt Q07820).
T1 construct: made in house; host or cells: E. coli
Nature of the data set: isothermal titration microcalorimetry (ITC) with purified recombinant Mcl-1. Particulars: for binding / affinity for Mcl-1 measurable by ITC: purified recombinant Mcl-1, in words. The format is binding.

Data set [2] addresses Bcl-xL (Homo sapiens, UniProt Q07817). Kind of data set: liposome assay with Bcl-xL in place of Mcl-1. The format is biochemical. An excerpt:
(§1) Moreover, when Mcl-1 was replaced with Bcl-xL in the assay, 12 also had no effect (FIG. 10). […] Toxic thrombocytopenia caused by ABT-737 in vivo has been correlated with Bcl-xL inhibition.^25

Data set [3] concerns Bak. Kind of data set: liposome assay with Bak-loaded proteoliposomes lacking Mcl-1. The format is biochemical. The note with it: Bak loaded proteoliposomes without Mcl-1. How it is done: (§2) Synthetic 3, along with numerous intermediates and their derivatives were assayed in a model system for mitochondrial outer membrane permeabilization (MOMP). This liposome based experiment recapitulates a signaling axis involving pro-apoptotic Bak, anti-apoptotic Mcl-1, and an active, truncated 15 kDa subunit of the pro-death protein Bid (tBid).^11 Bak and Mcl-1 are transmembrane proteins constitutively anchored in the mitochondrial outer membrane. tBid translocates to mitochondria upon cleavage of Bid by caspase-8 and stimulates MOMP by directly activating free Bak and by disengaging any activated Bak from Mcl-1. Applicants' assay mimics these events using recombinant, lipidated Mcl-1 and Bak that are constitutively bound to unilamellar liposomes encapsulating calcein dye. tBid addition initiates Bak homo oligomerization and pore formations, which in turn results in calcein release and a fluorescence signal. Mcl-1 counters this tBid dependent activation of Bak, which is overcome by small molecule Mcl-1 antagonists (FIG. 6).
(§3) Recombinant Mcl-1 was expressed and purified from E. coli.
as §1

Data set [4] relates to Mcl-1/Bak PPI. Nature of the data set: liposome functional assay for Mcl-1/Bak (calcein release, MOMP model). Type of data set: biochemical. Particulars: in words.
Description: The Shore lab has developed a functional assay utilizing recombinant proteins anchored in artificial liposomes that enables the evaluation of small-molecules to disrupt the Mcl-1/Bak PPI (FIG. 2A). In this assay, full-length functional single cysteine mutants of Mcl-1 and Bak were anchored into lipids (with PE's) utilizing the engineered cysteine residues as a handle. This allows Applicants to recapitulate Bak-mediated mitochondrial permeabilization and measure the various protein-protein and protein-membrane interactions involved in Mcl-1 regulation of Bak. The release of calcenin (Cn) dye encapsulated in the liposome was used to quantify membrane permeabilization. When the system is untreated, Mcl-1 sequesters Bak by engaging its BH3 domain. Incubation with an active inhibitor neutralizes Mcl-1. This triggers Bak auto-oligomerization resulting in the formation of pores in the lipid membrane and release of Cn. By measuring […] from Cn, Applicants can quantify antagonism of Mcl-1 in real time.
as §2

Data set [5] deals with Ep-myc (myr) Akt lymphoma cells. Kind of data set: mouse lymphoma model with and without doxorubicin, tumor-free survival. The format is in vivo, C57BL/6 mice. As to the method:
C57BL/6 mice were tail-vein injected with Ep-myc (myr) Akt lymphoma cells and palpable tumors (multiple sites per animal) allowed to develop. Animals were randomized for tumor burden and treated by intraperitoneal (IP) injection with vehicle, or vehicle containing obatoclax (10 mg/kg) or JHF3056 (40 mg/kg) daily×5. In addition, animals received a single injection of doxorubicin (IP, 10 mg/kg) on day 2 of the injection regimen, either alone or in combination with the obatoclax (9) or JHF3056 (10) regimen. Animals were allowed to become tumor-free (no observable palpable tumors) and then tumor-free survival was measured (time to re-appearance of tumors).

Data set [6] in a line: stability of the neat substance. Type of data set: physicochemical. Particulars: in words.
Data set [7] in a line: in vivo toxicity (minimum toxic dose).
The subject of data set [8] is human KMS-11 cells. Kind of data set: cytotoxicity in cell culture, KMS-11. The format is cell-based. Particulars: 1.0 μM concentration.
The subject of data set [9] is human KMS-11 myeloid leukemia cells. Kind of data set: cytotoxicity in cell culture, KMS-11. Type of data set: cell-based. Particulars: KMS-11 cells, single dose, in words.
For data set [10], the system named is truncated Bid. Nature of the data set: binding to truncated Bid. The note with it: data not shown.
Description: as §3

T1 sequence (Q07820 whole entry): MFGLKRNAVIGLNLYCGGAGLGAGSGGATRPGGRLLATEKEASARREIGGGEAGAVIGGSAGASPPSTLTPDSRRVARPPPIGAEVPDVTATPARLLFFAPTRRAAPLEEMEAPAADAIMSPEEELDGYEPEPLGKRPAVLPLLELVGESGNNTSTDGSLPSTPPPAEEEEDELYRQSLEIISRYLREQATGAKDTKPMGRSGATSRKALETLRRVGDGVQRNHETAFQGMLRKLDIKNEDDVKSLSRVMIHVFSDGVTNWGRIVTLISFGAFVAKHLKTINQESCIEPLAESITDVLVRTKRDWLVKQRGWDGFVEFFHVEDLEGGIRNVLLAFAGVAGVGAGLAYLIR
Sequence of Bcl-xL (Q07817 whole entry, species assumed): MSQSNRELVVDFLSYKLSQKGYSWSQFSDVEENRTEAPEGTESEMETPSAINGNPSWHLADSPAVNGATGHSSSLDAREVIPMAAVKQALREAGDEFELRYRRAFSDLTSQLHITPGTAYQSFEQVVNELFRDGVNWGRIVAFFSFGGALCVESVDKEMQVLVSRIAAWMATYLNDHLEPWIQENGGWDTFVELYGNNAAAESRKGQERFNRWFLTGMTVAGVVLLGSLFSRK

Take `COc1cc(-c2c(Cl)ccn2S(=O)(=O)c2ccc(C)cc2)oc1-c1nnn[nH]1` [Compound 12]: in [1] (purified recombinant Mcl-1), the dissociation constant (Kd) was 700 ± 120 nM. In data set [1], the “binding / affinity for Mcl-1 measurable by ITC” value is “strong, saturable binding”. Further, the “MOMP-like pore formation in liposomes containing Bcl-xL” value in [2] was “no effect; also recorded: did not stimulate MOMP-like pore formations”. In addition, the “calcein release from liposomes lacking Mcl-1” value in data set [3] is reported as “did not release calcein dye”. Moreover, the “antagonism of Mcl-1 / Bak-mediated permeabilization of liposomal membranes” value in data set [4] was “stimulate Bak-mediated permeabilization of liposomal membranes; also recorded: successfully drove pore formations; also recorded: exceeded that of 5 and obatoclax”.
Turning to `COc1cc(-c2c(Cl)ccn2S(=O)(=O)c2ccc(C)cc2)oc1C(C)=O` [JHF3056, 1-(5-(3-chloro-1-tosyl-1H-pyrrol-2-yl)-3-methoxyfuran-2-yl)ethan-1-one], the “anti-tumor activity in combination with doxorubicin” value in [5] (JHF3056 40 mg/kg IP daily×5, doxorubicin 10 mg/kg IP day 2) is “sensitizes lymphoma tumor xenografts to doxorubicin”; in data set [5] (JHF3056 40 mg/kg IP daily×5, doxorubicin 10 mg/kg IP day 2, listed as 10) it was “clear anti-tumor activity in combination with the chemotherapeutic doxorubicin”. Also, in [1] (listed as 5), the “binding / affinity for Mcl-1 measurable by ITC” value is on record as “Neither 2 nor 5 demonstrated measurable affinity”. The stability result in data set [6] was “stable solid”; in data set [6] (listed as 5), “bench stable solid”. For the same compound, the “calcein release from liposomes lacking Mcl-1” value in [3] is “did not induce release of calcein”. In [7] (in vivo), this compound registered a minimum toxic dose of 80 mg/kg. Besides, the “toxicity at pharmacologically relevant doses” value in [7] (in words) is recorded as “nontoxic at pharmacologically relevant doses”. Moreover, the “cytotoxic activity relative to obatoclax” value in [8] is recorded as “enhanced activity relative to obatoclax (9)”. Further, the cytotoxicity entry in [9] is “cytotoxic at micromolar concentrations; also recorded: sub-micromolar cytotoxicity”; in data set [9] (listed as 10), “sub-micromolar single dose cytotoxicity”. The “antagonism of Mcl-1 / Bak-mediated permeabilization of liposomal membranes” value in data set [4] was “capacity to antagonize the Mcl-1/Bak PPI; also recorded: directly antagonizes Mcl-1; also recorded: superior performance of JHF3056 (10) relative to 8 and 9”; in data set [4] (listed as 5), “counter Mcl-1 activity and promote Bak-mediated permeabilization of liposomal membranes; also recorded: near equipotent to 4”; in data set [4] (listed as 10), “promising activity”. Further, in [10], the “binding to truncated Bid” value is recorded as “no binding”.
Turning to `COc1cc(-c2[nH]ccc2Cl)oc1C1=C2N=C3C=C2[C@H](C(C)C)[C@H]1CCCCCCCC3` [roseophilin, reference compound], the “antagonism of Mcl-1 / Bak-mediated permeabilization of liposomal membranes” value in data set [4] is listed as “little activity”.
